Results published in patent US11732143B2, “Identification and characterization of novel corrosion inhibitor molecules” (ECOLAB USA INC., priority 2015, dated 2023).

Tested on: live bacteria
Assay: Biocide efficiency, fluorescence detection of ATP, percentage kill / viable bacteria
Format: cell-based
Conditions: for biocidal efficiency in conjunction with biocide 4: 120 ppm corrosion inhibitor + 100 ppm biocide 4 (glutaraldehyde); for biocidal efficiency of the corrosion inhibitor by itself (viable microorganisms): 120 ppm corrosion inhibitor alone
Protocol: Biocidal efficiency of the biocide and biocide in conjunction with corrosion inhibitors were analyzed using fluorescence to indirectly detect the amount of ATP in a given sample. ATP provides a direct correlation to live bacteria (1fg of ATP=1 cell). Through a standard curve, it is the possible to translate the amount of ATP in a given sample to the number of cells/mL in a given sample. Percentage kill was calculated by normalizing the detected bacterial numbers in a biocide or a biocide and corrosion inhibitor treated sample to untreated sample.

Substance | biocidal efficiency in conjunction with biocide 4 | biocidal efficiency of the corrosion inhibitor by itself (viable microorganisms)
2-hydroxylethyl-N-methylbutane-1-sulphonamide | does not have any biocidal properties | does not have any biocidal properties
Cocoamphodiproprionate sodium salt | modest increase in the biocidal properties of biocide 4 | not efficient in reducing the number of viable microorganisms by itself
